In the NIST ThermoML archive (doi:10.1016/j.fluid.2016.02.004):
± gives the expanded uncertainty stated by the source.

Assay: activity coefficient (dimensionless); of the first substance listed, at infinite dilution; xn = mol fraction of the nth substance listed
Details: Liquid, Chromatography, x1 = 0

Which activity coefficient (318.15 K) does the source give for `C#CCCCC` [1-hexyne] + CCCCn1cc[n+](C)c1.N#CN=C=[N-] here?
Its activity coefficient is 5.43 ± 0.37.

What about the activity coefficient (328.15 K) of the same compound?
Its activity coefficient is 5.76 ± 0.39.

And the activity coefficient (338.15 K)?
Its activity coefficient is 6.12 ± 0.42.

And the activity coefficient (348.15 K)?
The activity coefficient was 6.49 ± 0.44.

And the activity coefficient (358.15 K)?
The activity coefficient was 6.85 ± 0.47.

What about the activity coefficient (368.15 K) of the same compound?
The activity coefficient was 7.23 ± 0.49.

For `CCCCCCCCCC` [decane] + CCCCn1cc[n+](C)c1.N#CN=C=[N-], which activity coefficient (318.15 K) is on record?
Its activity coefficient is 314 ± 22.

What about the activity coefficient (328.15 K) of the same compound?
Its activity coefficient is 285 ± 20.

And the activity coefficient (338.15 K)?
Its activity coefficient is 260 ± 18.

What about the activity coefficient (348.15 K) of the same compound?
The activity coefficient was 239 ± 16.

What about the activity coefficient (358.15 K) of the same compound?
Its activity coefficient is 221 ± 15.

And the activity coefficient (368.15 K)?
Its activity coefficient is 205 ± 14.

With `C1CCOC1` [tetrahydrofuran] + CCCCn1cc[n+](C)c1.N#CN=C=[N-] as the compound, how does the activity coefficient (318.15 K) read?
Its activity coefficient is 1.55 ± 0.1.

What about the activity coefficient (328.15 K) of the same compound?
The activity coefficient was 1.63 ± 0.11.

What about the activity coefficient (338.15 K) of the same compound?
Its activity coefficient is 1.71 ± 0.11.

And the activity coefficient (348.15 K)?
The activity coefficient was 1.78 ± 0.12.

And the activity coefficient (358.15 K)?
The activity coefficient was 1.85 ± 0.12.

What about the activity coefficient (368.15 K) of the same compound?
Its activity coefficient is 1.93 ± 0.13.

Which results are given for `C=CCCC` [1-pentene] + CCCCn1cc[n+](C)c1.N#CN=C=[N-]?
activity coefficient (318.15 K): 17.3 ± 1.2; activity coefficient (328.15 K): 17.3 ± 1.2; activity coefficient (338.15 K): 17.3 ± 1.2; activity coefficient (348.15 K): 17.3 ± 1.2; activity coefficient (358.15 K): 17.3 ± 1.2; activity coefficient (368.15 K): 17.3 ± 1.2

With `CCC(C)(C)C` [2,2-dimethylbutane] + CCCCn1cc[n+](C)c1.N#CN=C=[N-] as the compound, how does the activity coefficient (318.15 K) read?
The activity coefficient was 53.6 ± 3.7.

And the activity coefficient (328.15 K)?
The activity coefficient was 51.7 ± 3.5.

And the activity coefficient (338.15 K)?
The activity coefficient was 50.1 ± 3.4.

What about the activity coefficient (348.15 K) of the same compound?
The activity coefficient was 48.7 ± 3.3.

And the activity coefficient (358.15 K)?
Its activity coefficient is 47.4 ± 3.2.

And the activity coefficient (368.15 K)?
The activity coefficient was 46 ± 3.1.

With `Cc1cccc(C)c1` [1,3-dimethylbenzene] + CCCCn1cc[n+](C)c1.N#CN=C=[N-] as the compound, how does the activity coefficient (318.15 K) read?
The activity coefficient was 4.65 ± 0.32.

And the activity coefficient (328.15 K)?
The activity coefficient was 4.82 ± 0.33.

And the activity coefficient (338.15 K)?
The activity coefficient was 5.03 ± 0.34.

And the activity coefficient (348.15 K)?
The activity coefficient was 5.19 ± 0.35.

And the activity coefficient (358.15 K)?
The activity coefficient was 5.38 ± 0.37.

And the activity coefficient (368.15 K)?
The activity coefficient was 5.56 ± 0.38.

For `CCCOCCC` [dipropyl ether] + CCCCn1cc[n+](C)c1.N#CN=C=[N-], which activity coefficient (318.15 K) is on record?
Its activity coefficient is 20.4 ± 1.4.

What about the activity coefficient (328.15 K) of the same compound?
Its activity coefficient is 20.5 ± 1.4.

And the activity coefficient (338.15 K)?
Its activity coefficient is 20.5 ± 1.4.

And the activity coefficient (348.15 K)?
The activity coefficient was 20.5 ± 1.4.

What about the activity coefficient (358.15 K) of the same compound?
The activity coefficient was 20.5 ± 1.4.

What about the activity coefficient (368.15 K) of the same compound?
Its activity coefficient is 20.6 ± 1.4.

For `CCCCCC` [hexane] + CCCCn1cc[n+](C)c1.N#CN=C=[N-], which activity coefficient (318.15 K) is on record?
The activity coefficient was 61.6 ± 4.2.

And the activity coefficient (328.15 K)?
Its activity coefficient is 59.3 ± 4.1.

And the activity coefficient (338.15 K)?
Its activity coefficient is 57.1 ± 3.9.

And the activity coefficient (348.15 K)?
The activity coefficient was 55.2 ± 3.8.

And the activity coefficient (358.15 K)?
Its activity coefficient is 53.4 ± 3.7.

What about the activity coefficient (368.15 K) of the same compound?
Its activity coefficient is 51.7 ± 3.5.

With `C=C(C)c1ccccc1` [(1-methylethenyl)benzene] + CCCCn1cc[n+](C)c1.N#CN=C=[N-] as the compound, how does the activity coefficient (318.15 K) read?
Its activity coefficient is 3.3 ± 0.2.

What about the activity coefficient (328.15 K) of the same compound?
Its activity coefficient is 3.53 ± 0.24.

And the activity coefficient (338.15 K)?
The activity coefficient was 3.79 ± 0.26.

And the activity coefficient (348.15 K)?
The activity coefficient was 4.02 ± 0.27.

And the activity coefficient (358.15 K)?
The activity coefficient was 4.26 ± 0.29.

What about the activity coefficient (368.15 K) of the same compound?
The activity coefficient was 4.51 ± 0.31.

Which activity coefficient (318.15 K) does the source give for `CCO` [ethanol] + CCCCn1cc[n+](C)c1.N#CN=C=[N-] here?
The activity coefficient was 0.65 ± 0.044.

And the activity coefficient (328.15 K)?
Its activity coefficient is 0.658 ± 0.045.

And the activity coefficient (338.15 K)?
The activity coefficient was 0.669 ± 0.045.

What about the activity coefficient (348.15 K) of the same compound?
Its activity coefficient is 0.677 ± 0.046.

What about the activity coefficient (358.15 K) of the same compound?
The activity coefficient was 0.686 ± 0.046.

And the activity coefficient (368.15 K)?
Its activity coefficient is 0.694 ± 0.047.

What does the source list for `C=CCCCC` [hex-1-ene] + CCCCn1cc[n+](C)c1.N#CN=C=[N-]?
activity coefficient (318.15 K): 26.4 ± 1.8; activity coefficient (328.15 K): 25.9 ± 1.8; activity coefficient (338.15 K): 25.5 ± 1.7; activity coefficient (348.15 K): 25.1 ± 1.7; activity coefficient (358.15 K): 24.7 ± 1.7; activity coefficient (368.15 K): 24.4 ± 1.7

Which activity coefficient (318.15 K) does the source give for `CCOCC` [diethyl ether] + CCCCn1cc[n+](C)c1.N#CN=C=[N-] here?
Its activity coefficient is 6.88 ± 0.47.

What about the activity coefficient (328.15 K) of the same compound?
The activity coefficient was 7.11 ± 0.48.

And the activity coefficient (338.15 K)?
Its activity coefficient is 7.32 ± 0.5.

What about the activity coefficient (348.15 K) of the same compound?
Its activity coefficient is 7.53 ± 0.51.

And the activity coefficient (358.15 K)?
The activity coefficient was 7.74 ± 0.53.

What about the activity coefficient (368.15 K) of the same compound?
The activity coefficient was 7.95 ± 0.54.

With `C1CCCCCCC1` [cyclooctane] + CCCCn1cc[n+](C)c1.N#CN=C=[N-] as the compound, how does the activity coefficient (318.15 K) read?
Its activity coefficient is 42.4 ± 2.9.

And the activity coefficient (328.15 K)?
The activity coefficient was 40.4 ± 2.8.

And the activity coefficient (338.15 K)?
The activity coefficient was 38.6 ± 2.6.

And the activity coefficient (348.15 K)?
The activity coefficient was 37.1 ± 2.5.

And the activity coefficient (358.15 K)?
Its activity coefficient is 35.8 ± 2.4.

What about the activity coefficient (368.15 K) of the same compound?
The activity coefficient was 34.5 ± 2.4.

Which results are given for `CCCCCCCCC` [nonane] + CCCCn1cc[n+](C)c1.N#CN=C=[N-]?
activity coefficient (318.15 K): 207 ± 14; activity coefficient (328.15 K): 193 ± 13; activity coefficient (338.15 K): 181 ± 12; activity coefficient (348.15 K): 171 ± 12; activity coefficient (358.15 K): 162 ± 11; activity coefficient (368.15 K): 153 ± 11

Which activity coefficient (318.15 K) does the source give for `Cc1ccccc1` [toluene] + CCCCn1cc[n+](C)c1.N#CN=C=[N-] here?
Its activity coefficient is 2.89 ± 0.2.

What about the activity coefficient (328.15 K) of the same compound?
The activity coefficient was 3.01 ± 0.2.

What about the activity coefficient (338.15 K) of the same compound?
The activity coefficient was 3.15 ± 0.21.

What about the activity coefficient (348.15 K) of the same compound?
Its activity coefficient is 3.27 ± 0.22.

And the activity coefficient (358.15 K)?
Its activity coefficient is 3.4 ± 0.2.

What about the activity coefficient (368.15 K) of the same compound?
Its activity coefficient is 3.54 ± 0.24.
